BindingDB's records for patent WO2025045746 (695 Avenue de la Résistance, 2025)

molecular target: T1, NAD(+) hydrolase SARM1 [28-724] (UniProt Q6SZW1); assay: SARM1 Inhibitory Activity
T1 construct: 28-724
T1 sequence (Q6SZW1 whole entry): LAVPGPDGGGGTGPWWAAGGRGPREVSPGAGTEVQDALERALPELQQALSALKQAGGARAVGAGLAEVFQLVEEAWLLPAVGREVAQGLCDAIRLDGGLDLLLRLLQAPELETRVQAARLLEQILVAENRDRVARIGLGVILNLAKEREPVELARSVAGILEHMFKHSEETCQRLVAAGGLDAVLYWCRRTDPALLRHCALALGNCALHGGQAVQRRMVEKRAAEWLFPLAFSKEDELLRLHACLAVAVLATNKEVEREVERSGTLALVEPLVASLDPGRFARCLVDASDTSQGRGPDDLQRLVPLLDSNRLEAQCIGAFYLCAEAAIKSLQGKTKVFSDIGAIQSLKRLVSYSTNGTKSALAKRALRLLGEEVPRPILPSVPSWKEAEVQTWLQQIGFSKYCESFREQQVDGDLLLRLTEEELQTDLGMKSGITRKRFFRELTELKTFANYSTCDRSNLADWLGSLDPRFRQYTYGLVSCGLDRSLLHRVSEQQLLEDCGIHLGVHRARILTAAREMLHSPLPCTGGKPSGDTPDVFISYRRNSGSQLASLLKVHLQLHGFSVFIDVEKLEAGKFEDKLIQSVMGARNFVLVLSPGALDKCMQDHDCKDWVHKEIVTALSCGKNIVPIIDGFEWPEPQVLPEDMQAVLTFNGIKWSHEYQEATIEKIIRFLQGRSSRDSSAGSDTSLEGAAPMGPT
Description: Assay reagents were prepared in 25mM HEPES pH 7.2, 50mM NaCl, 1mM EDTA and 0.0025% Tween20. […] The peak area of NAD and linear ADPR were measured by a RapidFire High Throughput Mass Spectrometry System (Agilent Technologies, Santa Clara, CA) using an API5000 triple quadrupole mass spectrometer (AB Sciex Framingham, MA). The ratio of linear ADPR to NAD peak area was then plotted against compound concentration to obtain an IC50 as fitted via non-linear regression.

| SMILES | IC50 [nM] |
| --- | --- |
| CC1CN(C(=O)c2cc(-c3ccnnc3)n[nH]2)CC1c1ccc(Br)cc1 (configuration not stated) [WO2025045746, Example 46] | 188 |
| O=C(c1cc(-c2ccnnc2)n[nH]1)N1C[C@@H](CO)[C@H](c2ccc(Cl)cc2)C1 [WO2025045746, Example 60] | 72 |
| O=C(c1[nH]nc(-c2ccnnc2)c1C1CC1)N1CCC(c2ccc(Cl)cc2)C1 (configuration not stated) [WO2025045746, Example 66] | 3020 |
| O=C(c1cc(-c2ccnnc2)n[nH]1)N1CCC(c2ccc(Cl)s2)C1 (configuration not stated) [WO2025045746, Example 10] | 98 |
| O=C(c1cc(-c2ccncc2)n[nH]1)N1CCC2(CCc3cc(Br)ccc32)C1 (configuration not stated) [WO2025045746, Example 3] | 3190 |
| O=C(c1cc(-c2ccnnc2)n[nH]1)N1CC[C@@H](c2ccc(F)c(F)c2)C1 [WO2025045746, Example 41] | 57 |
| C[C@@H]1CN(C(=O)c2cc(-c3ccnnc3)n[nH]2)C[C@H]1c1ccc(Br)cc1 [WO2025045746, Example 52] | 1360 |
| Cc1cnccc1-c1cc(C(=O)N2CC[C@@H](c3ccc(Cl)cc3)C2)[nH]n1 [WO2025045746, Example 56] | 500 |
| O=C(c1cc(-c2ccnnc2)n[nH]1)N1CCC(c2ccc(Cl)nc2)C1 (configuration not stated) [WO2025045746, Example 19] | 469 |
| O=C(c1cc(-c2ccncc2)n[nH]1)N1CC[C@@H](c2ccc(Cl)nc2)C1 [WO2025045746, Example 29] | 2830 |
| COc1cc(C2CCN(C(=O)c3cc(-c4ccnnc4)n[nH]3)C2)cc(F)c1F (configuration not stated) [WO2025045746, Example 33] | 2120 |
| O=C(c1cc(-c2ccnnc2)n[nH]1)N1C[C@H](c2ccc(Cl)cc2)[C@@H](O)C1 [WO2025045746, Example 31] | 761 |
| O=C(c1cc(-c2ccncc2)n[nH]1)N1CCC(c2ccc(F)cc2Cl)C1 (configuration not stated) [WO2025045746, Example 8] | 458 |
| O=C(c1cc(-c2ccnnc2)n[nH]1)N1CCC(c2ccc(Cl)cc2)C1 (configuration not stated) [WO2025045746, Example 4] | 191 |
| O=C(c1cc(-c2ccncc2)n[nH]1)N1CC(c2ccc(Cl)cc2)C2CCCCC21 (configuration not stated) [WO2025045746, Example 32] | 521 |
| O=C(c1[nH]nc(-c2ccnnc2)c1Br)N1CC[C@H](c2ccc(Cl)cc2)C1 [WO2025045746, Example 58] | 340 |
| C[C@@H]1CN(C(=O)c2cc(-c3ccnnc3)n[nH]2)C[C@H]1c1ccc(Cl)cc1 [WO2025045746, Example 65] | 51 |
| O=C(c1[nH]nc(-c2ccnnc2)c1F)N1CC[C@@H](c2ccc(Cl)cc2)C1 [WO2025045746, Example 64] | 492 |
| O=C(c1cc(-c2ccncc2)n[nH]1)N1CCC(c2ccc(Cl)cc2)C1 (configuration not stated) [WO2025045746, Example 1] | 387 |
| Cc1ccc(C2CCN(C(=O)c3cc(-c4ccnnc4)n[nH]3)C2)s1 (configuration not stated) [WO2025045746, Example 45] | 1540 |
| O=C(c1cc(-c2ccnnc2)n[nH]1)N1CCC(c2ccc(Cl)cn2)C1 (configuration not stated) [WO2025045746, Example 20] | 9660 |

| SMILES | IC50 [nM] |
| --- | --- |
| C[C@@H]1C[C@H](c2ccc(F)cc2)CN1C(=O)c1cc(-c2ccnnc2)n[nH]1 [WO2025045746, Example 25] | 9540 |
| O=C(c1[nH]nc(-c2ccnnc2)c1Cl)N1CC[C@H](c2ccc(F)c(F)c2)C1 [WO2025045746, Example 50] | 68 |
| N#C[C@@H]1CN(C(=O)c2cc(-c3ccnnc3)n[nH]2)C[C@H]1c1ccc(Cl)cc1 [WO2025045746, Example 72] | 563 |
| O=C(c1cc(-c2ccnnc2)n[nH]1)N1C[C@H](c2ccc(Cl)cc2)[C@@H](F)C1 [WO2025045746, Example 76] | 4500 |
| O=C(c1cc(-c2ccnnc2)n[nH]1)N1CCC(c2ncc(Cl)s2)C1 (configuration not stated) [WO2025045746, Example 38] | 8300 |
| COc1c(-c2ccnnc2)n[nH]c1C(=O)N1CCC(c2ccc(Cl)cc2)C1 (configuration not stated) [WO2025045746, Example 35] | 698 |
| N#Cc1ccc(C2CCN(C(=O)c3cc(-c4ccnnc4)n[nH]3)C2)cc1 (configuration not stated) [WO2025045746, Example 16] | 2170 |
| Cc1sc(C2CCN(C(=O)c3cc(-c4ccnnc4)n[nH]3)C2)cc1Br (configuration not stated) [WO2025045746, Example 55] | 2170 |
| O=C(c1cc(-c2ccnnc2)n[nH]1)N1CCC(c2cc3ccccc3s2)C1 (configuration not stated) [WO2025045746, Example 54] | 8130 |
| O=C(c1cc(-c2ccnnc2)n[nH]1)N1CCC(c2cccc(OC(F)(F)F)c2)C1 (configuration not stated) [WO2025045746, Example 18] | 6180 |
| C[C@@H](O)[C@@H]1CN(C(=O)c2cc(-c3ccnnc3)n[nH]2)C[C@H]1c1ccc(Cl)cc1 [WO2025045746, Example 68] | 196 |
| O=C(c1cc(-c2ccnnc2)n[nH]1)N1CCC(F)(c2cc(F)cc(F)c2)C1 (configuration not stated) [WO2025045746, Example 15] | 3740 |
| N#Cc1ccc(C2CCN(C(=O)c3cc(-c4ccnnc4)n[nH]3)C2)s1 (configuration not stated) [WO2025045746, Example 40] | 746 |
| O=C(c1[nH]nc(-c2ccnnc2)c1F)N1CC[C@H](c2ccc(Cl)cc2)C1 [WO2025045746, Example 63] | 95 |
| O=C(c1cc(-c2ccnnc2)n[nH]1)N1CC[C@H](c2ccc(F)c(F)c2)C1 [WO2025045746, Example 42] | 183 |
| O=C(c1cc(-c2ccnnc2)n[nH]1)N1CCC(c2ccc(Cl)c(F)c2)C1 (configuration not stated) [WO2025045746, Example 39] | 73 |
| N#C[C@H]1CN(C(=O)c2cc(-c3ccnnc3)n[nH]2)C[C@@H]1c1ccc(Cl)cc1 [WO2025045746, Example 73] | 30 |
| Cc1ccc(C2CCN(C(=O)c3cc(-c4ccnnc4)n[nH]3)C2)cc1 (configuration not stated) [WO2025045746, Example 14] | 2910 |
| O=C(c1cc(-c2ccncc2)n[nH]1)N1CC[C@H](c2ccc(Cl)nc2)C1 [WO2025045746, Example 28] | 682 |
| O=C(c1[nH]nc(-c2ccnnc2)c1Cl)N1CC[C@@H](c2ccc(F)c(F)c2)C1 [WO2025045746, Example 49] | 379 |
| O=C(c1cc(-c2ccnnc2)n[nH]1)N1C[C@@H](F)[C@H](c2ccc(Cl)cc2)C1 [WO2025045746, Example 75] | 506 |

| SMILES | IC50 [nM] |
| --- | --- |
| C[C@H]1CN(C(=O)c2cc(-c3ccnnc3)n[nH]2)C[C@@H]1c1ccc(Br)cc1 [WO2025045746, Example 53] | 84 |
| O=C(c1cc(-c2ccnnc2)n[nH]1)N1CC[C@@H](c2cc(Cl)cs2)C1 [WO2025045746, Example 69] | 749 |
| C[C@H](O)[C@@H]1CN(C(=O)c2cc(-c3ccnnc3)n[nH]2)C[C@H]1c1ccc(Cl)cc1 [WO2025045746, Example 67] | 217 |
| CC1(C)CC(c2ccccc2)CN1C(=O)c1cc(-c2ccncc2)n[nH]1 (configuration not stated) [WO2025045746, Example 11] | 7390 |
| Cc1cnccc1-c1cc(C(=O)N2CC[C@H](c3ccc(Cl)cc3)C2)[nH]n1 [WO2025045746, Example 57] | 2210 |
| COc1cnccc1-c1cc(C(=O)N2CCC(c3ccc(Cl)cc3)C2)[nH]n1 (configuration not stated) [WO2025045746, Example 79] | 3050 |
| O=C(c1cc(-c2ccnnc2)n[nH]1)N1CC[C@H](c2cc(Cl)cs2)C1 [WO2025045746, Example 70] | 214 |
| O=C(c1cc(-c2ccncc2)n[nH]1)N1CCC(c2ccccc2)C1 (configuration not stated) [WO2025045746, Example 2] | 4510 |
| CC1CC(c2ccc(Cl)cc2)CN1C(=O)c1cc(-c2ccnnc2)n[nH]1 (configuration not stated) [WO2025045746, Example 43] | 8690 |
| O=C(c1cc(-c2ccncc2)n[nH]1)N1CCC(c2cccc(Cl)c2)C1 (configuration not stated) [WO2025045746, Example 7] | 1280 |
| O=C(c1cc(-c2ccncc2)n[nH]1)N1CCC(c2ccc(Cl)s2)C1 (configuration not stated) [WO2025045746, Example 9] | 194 |
| O=C(c1cc(-c2ccnnc2)n[nH]1)N1C[C@@H](O)[C@H](c2ccc(Cl)cc2)C1 [WO2025045746, Example 30] | 172 |
| O=C(c1cc(-c2ccnnc2)n[nH]1)N1CCC(c2cnc(Cl)s2)C1 (configuration not stated) [WO2025045746, Example 37] | 1780 |
| O=C(c1cc(-c2ccnnc2)n[nH]1)N1C[C@H](CO)[C@@H](c2ccc(Cl)cc2)C1 [WO2025045746, Example 61] | 1240 |
| O=C(c1cc(-c2ccncc2)n[nH]1)N1CCC(c2ccccc2Cl)C1 (configuration not stated) [WO2025045746, Example 6] | 3040 |
| O=C(c1cc(-c2ccncc2)n[nH]1)N1CC[C@H](c2ccc(Cl)cc2)C1 [WO2025045746, Example 26] | 194 |
| O=C(c1cc(-c2ccnnc2)n[nH]1)N1CCC(c2ccc(F)c(F)c2)C1 (configuration not stated) [WO2025045746, Example 17] | 105 |
| O=C(c1[nH]nc(-c2ccnnc2)c1Cl)N1CCC(c2ccc(F)c(F)c2)C1 (configuration not stated) [WO2025045746, Example 47] | 142 |
| O=C(c1cc(-c2ccnnc2)n[nH]1)N1CCC(c2ccc(Br)s2)C1 (configuration not stated) [WO2025045746, Example 44] | 114 |
| O=C(c1cc(-c2ccncc2)n[nH]1)N1CC[C@@H](c2ccc(Cl)cc2)C1 [WO2025045746, Example 27] | 625 |
